Data: the supplement of paper PMC8967900

What was measured:
Experiment in all cases: selective drug sensitivity score (sDSS, relative to normal bone marrow) (sDSS (score)); higher = more potent and effective on the cell line relative to normal bone marrow cells
Conditions in all cases: 72 h
JURKAT = test system: JURKAT
P30-OHKUBO = test system: P30-OHKUBO
COG-LL-332h = test system: COG-LL-332h
LC4-1 = test system: LC4-1
KARPAS-45 = test system: KARPAS-45
HAL-01 = test system: HAL-01
P12-ICHIKAWA = test system: P12-ICHIKAWA
SEM cells = test system: SEM cells
TANOUE = test system: TANOUE
MOLT-4 = test system: MOLT-4
ALL-PO = test system: ALL-PO
COG-LL-319h = test system: COG-LL-319h
TMD5 = test system: TMD5
MN-60 = test system: MN-60
NALL-1 = test system: NALL-1
COG-LL-317 = test system: COG-LL-317
SUP-B15 = test system: SUP-B15
MHH-CALL-3 = test system: MHH-CALL-3
CCRF-HSB2 = test system: CCRF-HSB2
PEER = test system: PEER
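Also: ALL cell lines in 384-well plates, five doses spanning 10,000-fold, each plate scaled between vehicle and 100 µmol/L benzalkonium chloride controls, sDSS an adapted area-under-curve metric.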

Compound | selective drug sensitivity score (JURKAT) | selective drug sensitivity score (P30-OHKUBO) | selective drug sensitivity score (COG-LL-332h) | selective drug sensitivity score (LC4-1) | selective drug sensitivity score (KARPAS-45) | selective drug sensitivity score (HAL-01) | selective drug sensitivity score (P12-ICHIKAWA) | selective drug sensitivity score (SEM cells) | selective drug sensitivity score (TANOUE) | selective drug sensitivity score (MOLT-4) | selective drug sensitivity score (ALL-PO) | selective drug sensitivity score (COG-LL-319h) | selective drug sensitivity score (TMD5) | selective drug sensitivity score (MN-60) | selective drug sensitivity score (NALL-1) | selective drug sensitivity score (COG-LL-317) | selective drug sensitivity score (SUP-B15) | selective drug sensitivity score (MHH-CALL-3) | selective drug sensitivity score (CCRF-HSB2) | selective drug sensitivity score (PEER)
C=CC(=O)Nc1cccc(Oc2nc(Nc3ccc(N4CCN(C)CC4)cc3)nc3ccsc23)c1 [Olmutinib] (top concentration 1000 nM) | -0.02 | 1.38 | -0.02 | -0.02 | 0.28 | 5.78 | -0.02 | -0.02 | -0.02 | -0.02 | -0.02 | -0.02 | -0.02 | -0.02 | 5.88 | 0.48 | -0.02 | -0.02 | -0.02 | -0.02
C=CC(=O)Nc1cc(Nc2nccc(-c3cn(C)c4ccccc34)n2)c(OC)cc1N(C)CCN(C)C [Osimertinib] (top concentration 2500 nM) | -4.22 | 1.08 | -0.32 | -0.42 | -1.92 | -0.42 | -3.02 | 0.58 | -5.22 | -3.12 | -0.72 | -4.12 | 2.98 | -3.02 | 0.58 | 0.78 | -2.02 | -4.62 | 0.08 | 1.28
O=C(Nc1cc(Cl)cc2c1[nH]c1cnccc12)c1cccnc1 [PS-1145] (top concentration 25000 nM) | -0.36 | 1.94 | -0.46 | -0.46 | 0.34 | 2.14 | -0.46 | 0.04 | -0.46 | -0.46 | -0.36 | -0.46 | -0.46 | -0.46 | 9.14 | -0.46 | -0.46 | -0.46 | 1.34 | -0.46
CC(=O)O[C@H]1C(=O)[C@@]2(C)[C@H]([C@H](OC(=O)c3ccccc3)[C@]3(O)C[C@H](OC(=O)[C@H](O)[C@@H](NC(=O)c4ccccc4)c4ccccc4)C(C)=C1C3(C)C)[C@]1(OC(C)=O)CO[C@@H]1C[C@@H]2O [Paclitaxel] (top concentration 1000 nM) | 18.3 | 22 | 20.5 | 23 | 18.3 | 0.74 | 19.9 | 21.3 | -10.8 | 19.3 | 17.8 | 21.5 | 8.14 | -0.36 | 12.2 | 19.6 | 21.1 | 5.24 | 18.8 | 22.2
CCCCCCCCCCCCCCCCCCOP(=O)([O-])OC1CC[N+](C)(C)CC1 [Perifosine] (top concentration 2500 nM) | -0.36 | -0.36 | -0.36 | 4.04 | -0.26 | -0.26 | -0.36 | -0.36 | -0.36 | -0.36 | 0.94 | -0.26 | -0.36 | -0.36 | -0.36 | -0.36 | 1.04 | -0.36 | -0.36 | -0.36
CC[C@@H]1C(=O)OC[C@@H]1Cc1cncn1C [Pilocarpine] (top concentration 40000 nM) | -1.56 | -1.56 | -1.56 | -1.56 | -1.56 | -1.56 | -1.56 | -1.56 | -0.36 | -1.26 | -1.56 | -1.56 | -1.56 | -1.56 | 7.44 | -1.56 | -1.56 | -1.56 | -1.56 | -1.56
Nc1cccc2c1C(=O)N(C1CCC(=O)NC1=O)C2=O (stereo not given) [Pomalidomide] (top concentration 10000 nM) | -0.26 | 0.54 | -0.26 | 4.54 | -0.26 | -0.26 | -0.26 | 3.64 | -0.26 | -0.26 | 8.14 | -0.26 | -0.26 | -0.26 | -0.06 | -0.26 | -0.26 | -0.26 | -0.26 | -0.26
Cc1nc(=O)c2cc(CN(C)c3ccc(C(=O)N[C@@H](CCC(=O)O)C(=O)O)s3)ccc2[nH]1 [Raltitrexed] (top concentration 1000 nM) | 14.6 | 25.3 | 18.3 | 19.3 | 9.52 | 21.2 | 20.4 | 23.9 | -0.58 | 17.3 | 23 | 25.7 | -0.68 | 8.02 | 12.8 | 19.5 | 28 | 9.92 | 21.9 | 13
C=CC(=O)Nc1cccc(Nc2nc(Nc3ccc(N4CCN(C(C)=O)CC4)cc3OC)ncc2C(F)(F)F)c1 [Rociletinib] (top concentration 10000 nM) | 2.64 | 4.24 | 1.84 | 3.94 | 3.14 | 0.14 | 1.94 | 6.34 | -3.16 | 2.04 | 10.3 | 0.24 | -2.06 | -0.76 | 3.14 | 1.44 | 1.44 | -1.06 | 1.24 | 4.24
CC(C)N(CCCNC(=O)Nc1ccc(C(C)(C)C)cc1)C[C@H]1O[C@@H](n2cc(Br)c3c(N)ncnc32)[C@H](O)[C@@H]1O [SGC0946] (top concentration 10000 nM) | -0.42 | 2.58 | 0.18 | -1.02 | 3.98 | 0.68 | 0.08 | -0.72 | -1.12 | 0.08 | 1.58 | -1.12 | 3.98 | -0.72 | 5.58 | -1.12 | -0.62 | -1.12 | 0.68 | 0.88
CC[C@H](CO)Nc1nc(NCc2ccccc2)c2ncn(C(C)C)c2n1 [Seliciclib] (top concentration 10000 nM) | -0.84 | -0.14 | 2.16 | 1.06 | 1.96 | -0.34 | -0.94 | -0.04 | -1.04 | -1.04 | -1.04 | 1.66 | -1.04 | -1.04 | -0.74 | 3.56 | 3.26 | -1.04 | 0.56 | -0.24
CN1CCN(C(=O)c2ccc3cc(CCNc4ncnc5ccc(C#N)cc45)ccc3c2)CC1 [Senexin_B] (top concentration 1000 nM) | 3.1 | 0.4 | 0.6 | -0.6 | 1.4 | -0.6 | 0.4 | -0.6 | 1.1 | -0.6 | -0.6 | -0.6 | -0.6 | 1.4 | -0.6 | 0.5 | 2.8 | -0.1 | 3.8 | 1.8
Clc1ccccc1C(c1ccccc1)(c1ccccc1)n1cccn1 [TRAM-34] (top concentration 1000 nM) | -0.08 | 1.12 | -0.08 | -0.08 | -0.08 | 2.72 | -0.08 | -0.08 | -0.08 | -0.08 | -0.08 | -0.08 | -0.08 | -0.08 | -0.08 | -0.08 | -0.08 | -0.08 | -0.08 | -0.08
C=CC[C@@H]1/C=C(\C)C[C@H](C)C[C@H](OC)[C@H]2O[C@@](O)(C(=O)C(=O)N3CCCC[C@H]3C(=O)O[C@H](/C(C)=C/[C@@H]3CC[C@@H](O)[C@H](OC)C3)[C@H](C)[C@@H](O)CC1=O)[C@H](C)C[C@@H]2OC [Tacrolimus] (top concentration 10000 nM) | 1.78 | 16.1 | 0.18 | 21.1 | 2.18 | 8.58 | 1.58 | 7.88 | -0.72 | 1.38 | 2.08 | 12.7 | 13.5 | -0.32 | 0.48 | 0.68 | 18.3 | 33.9 | 3.38 | 1.38
CCN(c1cc(-c2ccc(CN3CCOCC3)cc2)cc(C(=O)NCc2c(C)cc(C)[nH]c2=O)c1C)C1CCOCC1 [Tazemetostat] (top concentration 10000 nM) | 0.02 | 0.42 | -0.08 | -0.08 | 1.32 | 3.82 | 0.02 | 2.42 | -0.08 | -0.08 | 0.32 | -0.08 | -0.08 | -0.08 | 8.22 | -0.08 | -0.08 | -0.08 | 1.42 | 0.32
COc1cc2c(Nc3ccc(Cl)c(Cl)c3F)ncnc2cc1OC[C@@H]1C[C@@H]2CN(C)C[C@@H]2C1 [Tesevatinib] (top concentration 1000 nM) | -0.16 | 0.94 | -0.86 | -1.16 | 0.74 | 2.44 | -0.46 | 1.44 | -1.36 | -0.86 | 2.34 | -1.36 | 3.24 | 0.24 | -0.06 | 0.04 | -1.36 | 3.64 | 3.44 | 1.84
O=C1CCC(N2C(=O)c3ccccc3C2=O)C(=O)N1 (stereo not given) [Thalidomide] (top concentration 10000 nM) | -0.14 | -0.14 | -0.14 | -0.14 | -0.14 | 0.36 | -0.14 | -0.14 | -0.14 | -0.14 | -0.14 | -0.14 | -0.14 | -0.14 | -0.14 | -0.14 | -0.14 | -0.14 | -0.14 | -0.14
O=C1NC(=O)[C@@H](c2cn3c4c(cccc24)CCC3)[C@@H]1c1c[nH]c2ccccc12 [Tivantinib] (top concentration 1000 nM) | 3.98 | 6.58 | 3.48 | 4.08 | 4.08 | 5.78 | 3.68 | 7.18 | -1.32 | 3.28 | 2.08 | 3.58 | 5.38 | 3.78 | 4.78 | 3.68 | 2.88 | 0.78 | 3.58 | 4.38
